{"source": "ChEMBL document CHEMBL1130994", "about": "“3-trifluoromethylcarbacephems: synthesis of broad spectrum antibacterial compounds” (1998)", "assay_type_in_all_cases": "functional", "key": {"Providencia stuartii [1]": {"system": "Providencia stuartii", "test": "Compound was evaluated for minimum inhibitory concentration against PR33 Providencia stuartii"}, "Haemophilus influenzae [2]": {"system": "Haemophilus influenzae", "test": "Compound was evaluated for inhibitory activity against C.L Haemophilus influenzae ampicillin sensitive"}, "Klebsiella aerogenes [3]": {"system": "Klebsiella aerogenes", "test": "Compound was evaluated for inhibitory activity against EB17 Enterobacter aerogenes"}, "Staphylococcus aureus [4]": {"system": "Staphylococcus aureus", "test": "Compound was evaluated for inhibitory activity against X1.1 Staphylococcus aureus penicillin sensitive"}, "Enterococcus faecalis": {"system": "Enterococcus faecalis", "test": "Compound was evaluated for inhibitory activity against 2041 Enterococcus faecalis Gp.D streptococcus penicillin susceptible"}, "Klebsiella pneumoniae [5]": {"system": "Klebsiella pneumoniae", "test": "Compound was evaluated for inhibitory activity against X26 Klebsiella pneumoniae"}, "Haemophilus influenzae [6]": {"system": "Haemophilus influenzae", "test": "Compound was evaluated for inhibitory activity against 76 Haemophilus influenzae beta-lactamase"}, "Escherichia coli [7]": {"system": "Escherichia coli", "test": "Compound was evaluated for inhibitory activity against TEM Escherichia coli beta-lactamase"}, "Klebsiella aerogenes [8]": {"system": "Klebsiella aerogenes", "test": "Compound was evaluated for inhibitory activity against C32 Enterobacter aerogenes"}, "Streptococcus pyogenes": {"system": "Streptococcus pyogenes", "test": "Compound was evaluated for inhibitory activity against C203 Streptococcus pyogenes Gp.A"}, "Enterobacter cloacae [9]": {"system": "Enterobacter cloacae", "test": "Compound was evaluated for inhibitory activity against 265a Enterobacter cloacae beta-lactamase"}, "Acinetobacter [10]": {"system": "Acinetobacter", "test": "Compound was evaluated for minimum inhibitory concentration against AC12 Acinetobacter"}, "Salmonella [11]": {"system": "Salmonella", "test": "Compound was evaluated for minimum inhibitory concentration against X514 Salmonella"}, "Providencia rettgeri [12]": {"system": "Providencia rettgeri", "test": "Compound was evaluated for minimum inhibitory concentration against C24 Providencia rettgeri"}, "Serratia [13]": {"system": "Serratia", "test": "Compound was evaluated for minimum inhibitory concentration against SE3 Serratia"}, "Enterobacter cloacae [14]": {"system": "Enterobacter cloacae", "test": "Compound was evaluated for inhibitory activity against EB5 Enterobacter cloacae"}, "Serratia [15]": {"system": "Serratia", "test": "Compound was evaluated for minimum inhibitory concentration against X99 Serratia"}, "Morganella morganii [16]": {"system": "Morganella morganii", "test": "Compound was evaluated for minimum inhibitory concentration against PR15 Morganella morganii"}, "Klebsiella pneumoniae [17]": {"system": "Klebsiella pneumoniae", "test": "Compound was evaluated for inhibitory activity against KAE Klebsiella pneumoniae"}, "Escherichia coli [18]": {"system": "Escherichia coli", "test": "Compound was evaluated for inhibitory activity against EC14 Escherichia coli sensitive"}, "Streptococcus pneumoniae [19]": {"system": "Streptococcus pneumoniae", "test": "Compound was evaluated for inhibitory activity against Park S Streptococcus pneumoniae"}, "Staphylococcus aureus [20]": {"system": "Staphylococcus aureus", "test": "Compound was evaluated for inhibitory activity against S13E Staphylococcus aureus methicillin resistant penicillin resistant macrolide sensitive (PBP2a producer)"}, "Citrobacter [21]": {"system": "Citrobacter", "test": "Compound was evaluated for minimum inhibitory concentration against CF17 Citrobacter"}, "Staphylococcus aureus [22]": {"system": "Staphylococcus aureus", "test": "Compound was evaluated for inhibitory activity against X400S Staphylococcus aureus methicillin resistant and macrolide resistant"}, "Providencia rettgeri [23]": {"system": "Providencia rettgeri", "test": "Compound was evaluated for inhibitory activity against C24 Providencia rettgeri"}, "Streptococcus pneumoniae [24]": {"system": "Streptococcus pneumoniae", "test": "32 Compound was evaluated for inhibitory activity against Park S Streptococcus pneumoniae"}, "Providencia stuartii [25]": {"system": "Providencia stuartii", "test": "Compound was evaluated for inhibitory activity against PR33 Providencia stuartii"}, "Citrobacter [26]": {"system": "Citrobacter", "test": "Compound was evaluated for inhibitory activity against CF17 Citrobacter"}, "Salmonella [27]": {"system": "Salmonella", "test": "Compound was evaluated for inhibitory activity against X514 Salmonella"}, "Acinetobacter [28]": {"system": "Acinetobacter", "test": "Compound was evaluated for inhibitory activity against AC12 Acinetobacter"}, "Morganella morganii [29]": {"system": "Morganella morganii", "test": "Compound was evaluated for inhibitory activity against PR15 Morganella morganii"}, "Serratia [30]": {"system": "Serratia", "test": "Compound was evaluated for inhibitory activity against X99 Serratia"}, "Serratia [31]": {"system": "Serratia", "test": "Compound was evaluated for inhibitory activity against SE3 Serratia"}}, "data": [{"smiles": "Cc1ccc([C@@H](N)C(=O)N[C@@H]2C(=O)N3C(C(=O)O)=C(C(F)(F)F)CC[C@H]23)cc1", "values": [{"measurement": "MIC", "setting": "Providencia stuartii [1]", "result": 16, "unit": "µM"}, {"measurement": "MIC", "setting": "Haemophilus influenzae [2]", "result": 2, "unit": "µM"}, {"measurement": "MIC", "setting": "Klebsiella aerogenes [3]", "result": 8, "unit": "µM"}, {"measurement": "MIC", "setting": "Staphylococcus aureus [4]", "result": 1, "unit": "µM"}, {"measurement": "MIC", "setting": "Enterococcus faecalis", "result": 8, "unit": "µM"}, {"measurement": "MIC", "setting": "Klebsiella pneumoniae [5]", "result": 0.5, "unit": "µM"}, {"measurement": "MIC", "setting": "Haemophilus influenzae [6]", "result": 4, "unit": "µM"}, {"measurement": "MIC", "setting": "Escherichia coli [7]", "result": 4, "unit": "µM"}, {"measurement": "MIC", "setting": "Klebsiella aerogenes [8]", "result": 8, "unit": "µM"}, {"measurement": "MIC", "setting": "Streptococcus pyogenes", "result": 0.06, "unit": "µM"}, {"measurement": "MIC", "setting": "Enterobacter cloacae [9]", "result": 32, "unit": "µM"}, {"measurement": "MIC", "setting": "Acinetobacter [10]", "result": 16, "unit": "µM"}, {"measurement": "MIC", "setting": "Salmonella [11]", "result": 4, "unit": "µM"}, {"measurement": "MIC", "setting": "Providencia rettgeri [12]", "result": 16, "unit": "µM"}, {"measurement": "MIC", "setting": "Serratia [13]", "result": 64, "unit": "µM"}, {"measurement": "MIC", "setting": "Enterobacter cloacae [14]", "result": 16, "unit": "µM"}, {"measurement": "MIC", "setting": "Serratia [15]", "result": 16, "unit": "µM"}, {"measurement": "MIC", "setting": "Morganella morganii [16]", "result": 8, "unit": "µM"}, {"measurement": "MIC", "setting": "Klebsiella pneumoniae [17]", "result": 8, "unit": "µM"}, {"measurement": "MIC", "setting": "Escherichia coli [18]", "result": 2, "unit": "µM"}, {"measurement": "MIC", "setting": "Streptococcus pneumoniae [19]", "result": 0.13, "unit": "µM"}, {"measurement": "MIC", "setting": "Staphylococcus aureus [20]", "result": 4, "unit": "µM"}, {"measurement": "MIC", "setting": "Citrobacter [21]", "result": 16, "unit": "µM"}, {"measurement": "MIC", "setting": "Staphylococcus aureus [22]", "result": 4, "unit": "µM"}]}, {"smiles": "N[C@@H](C(=O)N[C@@H]1C(=O)N2C(C(=O)O)=C(C(F)(F)F)CC[C@H]12)c1cccc(F)c1", "values": [{"measurement": "MIC", "setting": "Providencia rettgeri [23]", "result": 16, "unit": "µM"}, {"measurement": "MIC", "setting": "Streptococcus pneumoniae [24]", "result": 0.25, "unit": "µM"}, {"measurement": "MIC", "setting": "Haemophilus influenzae [2]", "result": 2, "unit": "µM"}, {"measurement": "MIC", "setting": "Klebsiella aerogenes [3]", "result": 8, "unit": "µM"}, {"measurement": "MIC", "setting": "Staphylococcus aureus [4]", "result": 2, "unit": "µM"}, {"measurement": "MIC", "setting": "Enterococcus faecalis", "result": 32, "unit": "µM"}, {"measurement": "MIC", "setting": "Providencia stuartii [25]", "result": 16, "unit": "µM"}, {"measurement": "MIC", "setting": "Klebsiella pneumoniae [5]", "result": 2, "unit": "µM"}, {"measurement": "MIC", "setting": "Haemophilus influenzae [6]", "result": 2, "unit": "µM"}, {"measurement": "MIC", "setting": "Citrobacter [26]", "result": 16, "unit": "µM"}, {"measurement": "MIC", "setting": "Salmonella [27]", "result": 2, "unit": "µM"}, {"measurement": "MIC", "setting": "Escherichia coli [7]", "result": 2, "unit": "µM"}, {"measurement": "MIC", "setting": "Klebsiella aerogenes [8]", "result": 16, "unit": "µM"}, {"measurement": "MIC", "setting": "Acinetobacter [28]", "result": 32, "unit": "µM"}, {"measurement": "MIC", "setting": "Streptococcus pyogenes", "result": 0.06, "unit": "µM"}, {"measurement": "MIC", "setting": "Enterobacter cloacae [9]", "result": 32, "unit": "µM"}, {"measurement": "MIC", "setting": "Morganella morganii [29]", "result": 32, "unit": "µM"}, {"measurement": "MIC", "setting": "Enterobacter cloacae [14]", "result": 16, "unit": "µM"}, {"measurement": "MIC", "setting": "Klebsiella pneumoniae [17]", "result": 16, "unit": "µM"}, {"measurement": "MIC", "setting": "Serratia [30]", "result": 32, "unit": "µM"}, {"measurement": "MIC", "setting": "Escherichia coli [18]", "result": 4, "unit": "µM"}, {"measurement": "MIC", "setting": "Staphylococcus aureus [20]", "result": 32, "unit": "µM"}, {"measurement": "MIC", "setting": "Serratia [31]", "result": 64, "unit": "µM"}, {"measurement": "MIC", "setting": "Staphylococcus aureus [22]", "result": 64, "unit": "µM"}]}]}
